Earlier results, collected in patent publication US20040038890A1, “Human voltage-gated potassium channel subunit” (priority 1998, published 2004).

Columns and labels:
[1] = system: Kv2.1 and Kv2.1/rKv9.3 complexes; conditions: Kv2.1 compared with Kv2.1/rKv9.3
[2] = system: potassium currents in rat pulmonary artery myocytes
[3] = target: Kv2.1/rKv9.3 (Rattus norvegicus, UniProt O88759+P15387); conditions: Kv2.1/rKv9.3 versus Kv2.1 alone, Xenopus oocytes
Kv2.1/rKv9.3, sequence (P15387 whole entry): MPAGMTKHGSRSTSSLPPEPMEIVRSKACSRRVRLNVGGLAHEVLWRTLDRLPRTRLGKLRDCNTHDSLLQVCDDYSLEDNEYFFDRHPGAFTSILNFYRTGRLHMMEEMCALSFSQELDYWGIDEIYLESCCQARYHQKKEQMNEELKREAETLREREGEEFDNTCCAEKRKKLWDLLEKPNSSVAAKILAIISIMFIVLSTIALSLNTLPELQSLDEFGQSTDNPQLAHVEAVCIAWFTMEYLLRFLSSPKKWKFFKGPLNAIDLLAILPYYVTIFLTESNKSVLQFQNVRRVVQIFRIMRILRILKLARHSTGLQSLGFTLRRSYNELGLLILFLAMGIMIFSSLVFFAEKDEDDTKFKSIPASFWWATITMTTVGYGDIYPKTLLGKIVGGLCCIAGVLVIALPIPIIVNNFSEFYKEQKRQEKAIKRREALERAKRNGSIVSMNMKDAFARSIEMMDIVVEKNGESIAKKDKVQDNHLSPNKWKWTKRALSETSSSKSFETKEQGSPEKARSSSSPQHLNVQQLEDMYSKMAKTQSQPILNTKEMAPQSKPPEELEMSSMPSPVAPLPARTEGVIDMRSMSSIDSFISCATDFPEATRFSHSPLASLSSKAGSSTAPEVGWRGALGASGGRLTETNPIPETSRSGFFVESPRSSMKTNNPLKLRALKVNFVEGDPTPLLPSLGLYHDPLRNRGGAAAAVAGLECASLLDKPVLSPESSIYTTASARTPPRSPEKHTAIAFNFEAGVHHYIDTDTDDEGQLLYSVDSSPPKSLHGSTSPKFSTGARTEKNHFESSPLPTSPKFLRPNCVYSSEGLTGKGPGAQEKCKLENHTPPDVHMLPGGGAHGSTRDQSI
Kv2.1/rKv9.3, sequence (O88759 whole entry): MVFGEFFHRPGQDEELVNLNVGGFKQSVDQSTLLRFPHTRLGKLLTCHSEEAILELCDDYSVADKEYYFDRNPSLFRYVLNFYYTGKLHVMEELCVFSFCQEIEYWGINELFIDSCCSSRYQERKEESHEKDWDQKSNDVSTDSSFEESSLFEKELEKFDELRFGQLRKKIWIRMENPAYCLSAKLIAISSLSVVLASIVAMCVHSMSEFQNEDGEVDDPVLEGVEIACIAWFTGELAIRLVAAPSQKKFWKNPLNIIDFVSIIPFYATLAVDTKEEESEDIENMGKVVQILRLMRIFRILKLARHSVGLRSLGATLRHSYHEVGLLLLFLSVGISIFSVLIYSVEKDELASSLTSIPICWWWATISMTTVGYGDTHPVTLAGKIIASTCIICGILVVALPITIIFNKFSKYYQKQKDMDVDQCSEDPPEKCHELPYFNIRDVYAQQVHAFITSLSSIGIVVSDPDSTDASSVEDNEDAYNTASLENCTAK

| Molecule | sensitivity of Kv2.1 and Kv2.1/rKv9.3 complexes [1] | effect on potassium currents [2] | decrease in sensitivity of Kv2.1 when co-expressed with rKv9.3 [3] |
| --- | --- | --- | --- |
| CCN[C@@H](C)Cc1cccc(C(F)(F)F)c1 [DFF, dex-fenfluramine] | similarly sensitive | inhibit potassium currents |  |
| CC[N+](CC)(CC)CC.[Cl-] [TEA, tetraethylammonium chloride] |  |  | 3 fold |
| aminorex fumarate |  | inhibit potassium currents |  |
